Experiments:
Format in all cases: functional
Ostrinia nubilalis [1] = experiment: Effect on growth of female Ostrinia nubilalis (European corn borer) larvae assessed as pupal duration at 1% of diet dry weight after 6 days relative to control
Ostrinia nubilalis [2] = experiment: Effect on growth of female Ostrinia nubilalis (European corn borer) larvae assessed as pupal duration at 0.001% of diet dry weight after 6 days relative to control
Ostrinia nubilalis [3] = experiment: Effect on growth of male Ostrinia nubilalis (European corn borer) larvae assessed as adult emergence at 0.10% of diet dry weight after 6 days relative to control
Ostrinia nubilalis [4] = experiment: Antifeedant activity against Ostrinia nubilalis (European corn borer) larvae assessed as excretion rate at 0.20% of diet dry weight after 5 days relative to control
Ostrinia nubilalis [5] = experiment: Antifeedant activity against Ostrinia nubilalis (European corn borer) larvae assessed as growth rate at 0.40% of diet dry weight after 5 days relative to control
Ostrinia nubilalis [6] = experiment: Antifeedant activity against Ostrinia nubilalis (European corn borer) larvae assessed as excretion rate at 0.40% of diet dry weight after 5 days relative to control
Ostrinia nubilalis [7] = experiment: Effect on growth of male Ostrinia nubilalis (European corn borer) larvae assessed as larval duration at 1% of diet dry weight after 6 days relative to control
Ostrinia nubilalis [8] = experiment: Effect on growth of female Ostrinia nubilalis (European corn borer) larvae assessed as pupal weight at 1% of diet dry weight after 6 days relative to control
Ostrinia nubilalis [9] = experiment: Antifeedant activity against Ostrinia nubilalis (European corn borer) larvae assessed as amount of weight gain by the insect at 0.10% of diet dry weight after 5 days relative to control
Ostrinia nubilalis [10] = experiment: Effect on growth of male Ostrinia nubilalis (European corn borer) larvae assessed as pupal weight at 0.001% of diet dry weight after 6 days relative to control
Ostrinia nubilalis [11] = experiment: Effect on growth of male Ostrinia nubilalis (European corn borer) larvae assessed as adult emergence at 0.01% of diet dry weight after 6 days relative to control
Ostrinia nubilalis [12] = experiment: Antifeedant activity against Ostrinia nubilalis (European corn borer) larvae assessed as feeding rate at 0.60% of diet dry weight after 5 days relative to control
Ostrinia nubilalis [13] = experiment: Effect on growth of male Ostrinia nubilalis (European corn borer) larvae assessed as pupal weight at 1% of diet dry weight after 6 days relative to control
Ostrinia nubilalis [14] = experiment: Antifeedant activity against Ostrinia nubilalis (European corn borer) larvae assessed as amount of food consumed at 0.80% of diet dry weight after 5 days relative to control
Ostrinia nubilalis [15] = experiment: Antifeedant activity against Ostrinia nubilalis (European corn borer) larvae assessed as excretion rate at 0.60% of diet dry weight after 5 days relative to control
Ostrinia nubilalis [16] = experiment: Effect on growth of male Ostrinia nubilalis (European corn borer) larvae assessed as pupal duration at 0.01% of diet dry weight after 6 days relative to control
Ostrinia nubilalis [17] = experiment: Antifeedant activity against Ostrinia nubilalis (European corn borer) larvae assessed as amount excreted at 0.20% of diet dry weight after 5 days relative to control
Ostrinia nubilalis [18] = experiment: Effect on growth of male Ostrinia nubilalis (European corn borer) larvae assessed as pupal duration at 1% of diet dry weight after 6 days relative to control
Ostrinia nubilalis [19] = experiment: Effect on growth of male Ostrinia nubilalis (European corn borer) larvae assessed as adult emergence at 0.001% of diet dry weight after 6 days relative to control
Ostrinia nubilalis [20] = experiment: Effect on growth of female Ostrinia nubilalis (European corn borer) larvae assessed as pupal weight at 0.001% of diet dry weight after 6 days relative to control
Ostrinia nubilalis [21] = experiment: Antifeedant activity against Ostrinia nubilalis (European corn borer) larvae assessed as amount of weight gain by the insect at 0.60% of diet dry weight after 5 days relative to control
Ostrinia nubilalis [22] = experiment: Effect on growth of female Ostrinia nubilalis (European corn borer) larvae assessed as larval duration at 1% of diet dry weight after 6 days relative to control
Ostrinia nubilalis [23] = experiment: Effect on growth of female Ostrinia nubilalis (European corn borer) larvae assessed as pupal duration at 0.01% of diet dry weight after 6 days relative to control
Ostrinia nubilalis [24] = experiment: Insecticidal activity against Ostrinia nubilalis (European corn borer) larvae assessed as mortality at 0.10 to 0.80% of diet dry weight after 5 days relative to control
Ostrinia nubilalis [25] = experiment: Antifeedant activity against Ostrinia nubilalis (European corn borer) larvae assessed as amount of weight gain by the insect at 0.20% of diet dry weight after 5 days relative to control
Ostrinia nubilalis [26] = experiment: Antifeedant activity against Ostrinia nubilalis (European corn borer) larvae assessed as feeding rate at 0.20% of diet dry weight after 5 days relative to control
Ostrinia nubilalis [27] = experiment: Antifeedant activity against Ostrinia nubilalis (European corn borer) larvae assessed as amount of weight gain by the insect at 0.80% of diet dry weight after 5 days relative to control
Ostrinia nubilalis [28] = experiment: Effect on growth of male Ostrinia nubilalis (European corn borer) larvae assessed as larval duration at 0.01% of diet dry weight after 6 days relative to control
Ostrinia nubilalis [29] = experiment: Antifeedant activity against Ostrinia nubilalis (European corn borer) larvae assessed as excretion rate at 0.10% of diet dry weight after 5 days relative to control
Ostrinia nubilalis [30] = experiment: Antifeedant activity against Ostrinia nubilalis (European corn borer) larvae assessed as amount of food consumed at 0.60% of diet dry weight after 5 days relative to control
Ostrinia nubilalis [31] = experiment: Antifeedant activity against Ostrinia nubilalis (European corn borer) larvae assessed as growth rate at 0.80% of diet dry weight after 5 days relative to control
Ostrinia nubilalis [32] = experiment: Effect on growth of female Ostrinia nubilalis (European corn borer) larvae assessed as pupal weight at 0.01% of diet dry weight after 6 days relative to control
Ostrinia nubilalis [33] = experiment: Antifeedant activity against Ostrinia nubilalis (European corn borer) larvae assessed as amount of food consumed at 0.10% of diet dry weight after 5 days relative to control
Ostrinia nubilalis [34] = experiment: Effect on growth of male Ostrinia nubilalis (European corn borer) larvae assessed as pupal duration at 0.10% of diet dry weight after 6 days relative to control
Ostrinia nubilalis [35] = experiment: Antifeedant activity against Ostrinia nubilalis (European corn borer) larvae assessed as amount excreted at 0.60% of diet dry weight after 5 days relative to control
Ostrinia nubilalis [36] = experiment: Effect on growth of male Ostrinia nubilalis (European corn borer) larvae assessed as pupal weight at 0.10% of diet dry weight after 6 days relative to control
Ostrinia nubilalis [37] = experiment: Effect on growth of female Ostrinia nubilalis (European corn borer) larvae assessed as adult emergence at 0.01% of diet dry weight after 6 days relative to control
Ostrinia nubilalis [38] = experiment: Antifeedant activity against Ostrinia nubilalis (European corn borer) larvae assessed as growth rate at 0.10% of diet dry weight after 5 days relative to control
Ostrinia nubilalis [39] = experiment: Effect on growth of male Ostrinia nubilalis (European corn borer) larvae assessed as pupal duration at 0.001% of diet dry weight after 6 days relative to control
Ostrinia nubilalis [40] = experiment: Antifeedant activity against Ostrinia nubilalis (European corn borer) larvae assessed as growth rate at 0.20% of diet dry weight after 5 days relative to control
Ostrinia nubilalis [41] = experiment: Antifeedant activity against Ostrinia nubilalis (European corn borer) larvae assessed as amount excreted at 0.80% of diet dry weight after 5 days relative to control
Ostrinia nubilalis [42] = experiment: Effect on growth of male Ostrinia nubilalis (European corn borer) larvae assessed as larval duration at 0.10% of diet dry weight after 6 days relative to control

CC(C)=CCc1c2c(c3occ(-c4ccc(O)c(O)c4)c(=O)c3c1O)C=CC(C)(C)O2 [POMIFERIN]
Time (Ostrinia nubilalis [1]): 6.4 days
Time (Ostrinia nubilalis [2]): 6.7 days
Activity (Ostrinia nubilalis [3]): 25%
Activity (Ostrinia nubilalis [4]): -7%
Activity (Ostrinia nubilalis [5]): 5.3%
Activity (Ostrinia nubilalis [6]): -12%
Time (Ostrinia nubilalis [7]): 11.2 days
Activity (Ostrinia nubilalis [8]): 109 mg
Activity (Ostrinia nubilalis [9]): 38.1%
Activity (Ostrinia nubilalis [10]): 76 mg
Activity (Ostrinia nubilalis [11]): 67%
Activity (Ostrinia nubilalis [12]): 23.2%
Activity (Ostrinia nubilalis [13]): 72 mg
Activity (Ostrinia nubilalis [14]): 40.1%
Activity (Ostrinia nubilalis [15]): -12%
Time (Ostrinia nubilalis [16]): 7.2 days
Activity (Ostrinia nubilalis [17]): 8.2%
Time (Ostrinia nubilalis [18]): 6.7 days
Activity (Ostrinia nubilalis [19]): 78%
Activity (Ostrinia nubilalis [20]): 85 mg
Activity (Ostrinia nubilalis [21]): 31.5%
Time (Ostrinia nubilalis [22]): 12.9 days
Time (Ostrinia nubilalis [23]): 7 days
mortality (Ostrinia nubilalis [24]): <=11%
Activity (Ostrinia nubilalis [25]): 17.7%
Activity (Ostrinia nubilalis [26]): 34.6%
Activity (Ostrinia nubilalis [27]): 36.5%
Time (Ostrinia nubilalis [28]): 10.9 days
Activity (Ostrinia nubilalis [29]): 0%
Activity (Ostrinia nubilalis [30]): 38.5%
Activity (Ostrinia nubilalis [31]): 12%
Activity (Ostrinia nubilalis [32]): 96 mg
Activity (Ostrinia nubilalis [33]): 33.2%
Time (Ostrinia nubilalis [34]): 7.5 days
Activity (Ostrinia nubilalis [35]): 16.1%
Activity (Ostrinia nubilalis [36]): 74 mg
Activity (Ostrinia nubilalis [37]): 54%
Activity (Ostrinia nubilalis [38]): 13.3%
Time (Ostrinia nubilalis [39]): 7 days
Activity (Ostrinia nubilalis [40]): 4.7%
Activity (Ostrinia nubilalis [41]): 23%
Time (Ostrinia nubilalis [42]): 11.1 days

CC(C)=CCc1c2c(c3occ(-c4ccc(O)cc4)c(=O)c3c1O)C=CC(C)(C)O2 [OSAJIN]
Time (Ostrinia nubilalis [1]): 6.4 days
Time (Ostrinia nubilalis [2]): 6.5 days
Activity (Ostrinia nubilalis [3]): 71%
Activity (Ostrinia nubilalis [4]): 6%
Activity (Ostrinia nubilalis [5]): 4.7%
Activity (Ostrinia nubilalis [6]): 6.3%
Time (Ostrinia nubilalis [7]): 11.3 days
Activity (Ostrinia nubilalis [8]): 109 mg
Activity (Ostrinia nubilalis [9]): -2%
Activity (Ostrinia nubilalis [10]): 76 mg
Activity (Ostrinia nubilalis [11]): 50%
Activity (Ostrinia nubilalis [12]): 36%
Activity (Ostrinia nubilalis [13]): 71 mg
Activity (Ostrinia nubilalis [14]): 27.7%
Activity (Ostrinia nubilalis [15]): 1.9%
Time (Ostrinia nubilalis [16]): 6.8 days
Activity (Ostrinia nubilalis [17]): 2.6%
Time (Ostrinia nubilalis [18]): 7.3 days
Activity (Ostrinia nubilalis [19]): 71%
Activity (Ostrinia nubilalis [20]): 103 mg
Activity (Ostrinia nubilalis [21]): 7%
Time (Ostrinia nubilalis [22]): 12.4 days
Time (Ostrinia nubilalis [23]): 6.3 days
mortality (Ostrinia nubilalis [24]): <=7%
Activity (Ostrinia nubilalis [25]): -3%
Activity (Ostrinia nubilalis [26]): -8%
Activity (Ostrinia nubilalis [27]): 10.5%
Time (Ostrinia nubilalis [28]): 11.4 days
Activity (Ostrinia nubilalis [29]): -1%
Activity (Ostrinia nubilalis [30]): 36%
Activity (Ostrinia nubilalis [31]): 3%
Activity (Ostrinia nubilalis [32]): 104 mg
Activity (Ostrinia nubilalis [33]): -8%
Time (Ostrinia nubilalis [34]): 7.6 days
Activity (Ostrinia nubilalis [35]): 10.8%
Activity (Ostrinia nubilalis [36]): 75 mg
Activity (Ostrinia nubilalis [37]): 44%
Activity (Ostrinia nubilalis [38]): -1%
Time (Ostrinia nubilalis [39]): 7.2 days
Activity (Ostrinia nubilalis [40]): -1%
Activity (Ostrinia nubilalis [41]): 1.9%
Time (Ostrinia nubilalis [42]): 11.4 days
